Assay [1] has as its system ENA-78. In words: IL-1beta-stimulated ENA-78 production from HUVECs, cytometric immunofluorescence. Type of assay: cell-based, human. The following applies: for effect of co-treatment on the effect of AT on IL-1beta-stimulated ENA-78 production: IL-1beta and AT 10 uM, mevalonate 250 μM, FPP 5 μM, GGPP 5 μM; for stimulation of ENA-78 production by IL-1beta, times that of basal production: FIG. 15. As for the experimental part: Human umbilical vein endothelial cells (HUVECs) (Clonetics Cell Systems; Cambrex Bio Science Walkersville, Inc., Walkersville, USA) were cultured as previously described. Briefly, HUVECs between passes three and four were seeded at a density of 2.5×10^4 cells per cm^2 and cultured to 80% confluence with endothelial cell growth-supplemented medium (EGM-2-endothelial cell medium-2; Cambrex Bio Science Walkersville, Inc.). Once confluent, media was changed to serum free endothelial basal media (EBM-2-endothelial cell medium-2; Cambrex Bio Science Walkersville, Inc.) for 24 hours prior to treatment, in which EBM-2 media supplemented to a 2% FBS concentration was used. Treatments consisted of atorvastatin calcium (AT; LKT Laboratories Inc., St. […] All were dissolved in molecular grade water. All final DMSO concentrations were less then 0.1%. […] In experiments investigating the impact of AT on IL-1beta-stimulated ENA-78 production, HUVECs were pre-treated with AT followed by IL-1beta stimulation two hours later. […] In a separate set of experiments, cells were cultured with IL-1beta and AT in the presence or absence of mevalonate, FPP, and GGPP to determine whether AT inhibition of ENA-78 production was dependent on HMG-CoA reductase inhibition and subsequent downstream pathways. Cell culture supernates for all experiments were stored at -20° C. until analysis, which was performed within seven days. ENA-78 concentrations were measured and normalized to total protein content in cell culture supernates using cytometric immunofluorescence as previously described. Ribonucleic acid (RNA) was isolated using a commercial kit (RNeasy mini kit, Qiagen Inc., Valencia, USA). Complementary deoxyribonucleic acid (cDNA) conversion was performed by high capacity cDNA reverse transcription (Applied Biosystems, Foster City, USA) per protocol using roughly 2 μg of total RNA. RNA quality was assessed by absorbance (Nanodrop, Nanodrop Technologies, Wilmington, USA). Real-time reverse-transcription PCR (RT-PCR) was done using primer and probe sets for CXCL5 normalized to a housekeeping gene, glyceraldehyde-3-phosphate dehydrogenase (GAPDH; Taqman Gene Expression Assays, Applied Biosystems Inc.). […] PCR for both CXCL5 and GAPDH was performed at the same time using the following conditions: 95° C. for 2 minutes; 35 cycles of 95° C. for 30 seconds, 59° C. for 30 seconds, and 72° C. for 30 seconds; followed by 7 minutes of elongation at 72° C. Statistical differences in normalized protein concentrations and gene expression levels were determined by one way ANOVA and post-hoc Tukey analysis. […] An independent t-test was used to compare treatment differences at the same time points in the dose range analysis. […] Statistical analyses were performed with SPSS software, version 11.5 (SPSS Inc., Chicago, USA).

For assay [2], the system named is CXCL5. Briefly: CXCL5 gene expression in HUVECs, real-time RT-PCR normalized to GAPDH. Conditions: IL-1beta, 24 hours, FIG. 17. Type of assay: cell-based, human. The procedure:
Human umbilical vein endothelial cells (HUVECs) (Clonetics Cell Systems; Cambrex Bio Science Walkersville, Inc., Walkersville, USA) were cultured as previously described. Briefly, HUVECs between passes three and four were seeded at a density of 2.5×10^4 cells per cm^2 and cultured to 80% confluence with endothelial cell growth-supplemented medium (EGM-2-endothelial cell medium-2; Cambrex Bio Science Walkersville, Inc.). Once confluent, media was changed to serum free endothelial basal media (EBM-2-endothelial cell medium-2; Cambrex Bio Science Walkersville, Inc.) for 24 hours prior to treatment, in which EBM-2 media supplemented to a 2% FBS concentration was used. Treatments consisted of atorvastatin calcium (AT; LKT Laboratories Inc., St. […] All were dissolved in molecular grade water. All final DMSO concentrations were less then 0.1%. […] In experiments investigating the impact of AT on IL-1beta-stimulated ENA-78 production, HUVECs were pre-treated with AT followed by IL-1beta stimulation two hours later. […] In a separate set of experiments, cells were cultured with IL-1beta and AT in the presence or absence of mevalonate, FPP, and GGPP to determine whether AT inhibition of ENA-78 production was dependent on HMG-CoA reductase inhibition and subsequent downstream pathways. Cell culture supernates for all experiments were stored at -20° C. until analysis, which was performed within seven days. ENA-78 concentrations were measured and normalized to total protein content in cell culture supernates using cytometric immunofluorescence as previously described. Ribonucleic acid (RNA) was isolated using a commercial kit (RNeasy mini kit, Qiagen Inc., Valencia, USA). […] RNA quality was assessed by absorbance (Nanodrop, Nanodrop Technologies, Wilmington, USA). […] Statistical differences in normalized protein concentrations and gene expression levels were determined by one way ANOVA and post-hoc Tukey analysis. […]
For orientation: Quantitative PCR measures a nucleic acid by following its amplification.

Assay [3] concerns MCP-1. Briefly: MCP-1 production by non-stimulated human umbilical vein endothelial cells, multiplex protein measurement. Type of assay: cell-based. The following applies: highest concentration of atorvastatin plus mevalonate 250 μM. As for the experimental part:
(§1) Human umbilical vein endothelial cells were obtained (Clonetics Cell Systems; Cambrex Bio Science Walkersville, Inc., Walkersville, Md.). Approximately 5×10^5 viable cells were seeded in endothelial cell growth-supplemented basal medium (EGM-2-endothelial cell medium-2; Cambrex Bio Science Walkersville, Inc.) and maintained at 37° C. under a 5% carbon dioxide atmosphere per manufacturer's protocol. The culture medium was changed 24 hours after seeding and every 48 hours thereafter until confluence. Cells were then treated with trypsin, seeded in a 48-well culture dish, and incubated under the conditions previously described. Cells used in this Example were from the third passage.
(§2) After cells reached 70-80% confluence in the culture dish, they were allowed to become quiescent in unsupplemented, serum-free medium for 24 hours before treatment and then placed in medium containing 2% fetal bovine serum. Atorvastatin (LKT Laboratories Inc., St. Paul, Minn.) was dissolved in dimethylsulfoxide (Sigma-Aldrich, St. Louis, Mo.). Cells were treated for 24 hours with atorvastatin 1-50 μM alone or with atorvastatin plus mevalonate 250 μM (Sigma-Aldrich). Controls were cells cultured without atorvastatin or atorvastatinmevalonate. […] All experiments were performed in duplicate.
(§3) After treatment, culture-conditioned media were collected, divided into aliquots, and stored at −80° C. for no longer than 7 days until multiplex measurement of chemokines, cytokines, and angiogenic factors was performed.
(§4) The culture-conditioned media protein content of epithelial neutrophil-activating peptide-78 (ENA-78), interleukin-8, (IL-8), monocyte chemotactic protein-1 (MCP-1), interleukin-6 (IL-6), interleukin-10 (IL-10), fibroblast growth factor (FGF), and granulocyte colony-stimulating factor (G-CSF) were measured by means of flow-based immunofluorescence multiplex detection (Fluorokine MAP Human Cytokine Panel; R&D Systems Inc., Minneapolis, Minn.) with the Luminex 100 IS platform (Luminex Corp., Austin, Tex.). Concentrations for each sample were normalized against milligrams of total protein by using a standard bicinchoninic acid protein assay (Pierce Biotechnology, Inc., Rockford, Ill.). Samples were assayed in duplicate.
(§5) Standard curves of best fit for each analyte were generated by plotting the median fluorescence intensities of the analyte standards against their known concentrations by using Beadview multiplex data analysis software version 1 (Upstate, Charlottesville, Va.).
(§6) Differences in biomolecular concentrations were compared by treatment group by applying one-way analysis of variance and a post-hoc Tukey's test as appropriate. The Jonckheere Terpstra test was performed to assess the trend for differences in biomolecular concentrations across concentrations of atorvastatin. […]

Assay [4] relates to ENA-78. Briefly: ENA-78 production by non-stimulated human umbilical vein endothelial cells, multiplex protein measurement. Type of assay: cell-based. The procedure:
as §1, §2, §3, §4, §5, §6

The test system of assay [5] is IL-8. In words: IL-8 production by non-stimulated human umbilical vein endothelial cells, multiplex protein measurement. Type of assay: cell-based. As for the experimental part:
as §1, §2, §3, §4, §5
Differences in biomolecular concentrations were compared by treatment group by applying one-way analysis of variance and a post-hoc Tukey's test as appropriate. The Jonckheere Terpstra test was performed to assess the trend for differences in biomolecular concentrations across concentrations of atorvastatin. A p value below 0.05 was considered to indicate a statistically significant difference. Statistical analyses were performed with SPSS software, version 11.5 (SPSS Inc., Chicago, Ill.).

Assay [6] has as its system IL-6. In words: IL-6 production by non-stimulated human umbilical vein endothelial cells, multiplex protein measurement. The assay is classed as cell-based. Conditions: atorvastatin plus mevalonate 250 μM. The procedure:
as §1, with “passage. […]” for “passage.”
The culture-conditioned media protein content of epithelial neutrophil-activating peptide-78 (ENA-78), interleukin-8, (IL-8), monocyte chemotactic protein-1 (MCP-1), interleukin-6 (IL-6), interleukin-10 (IL-10), fibroblast growth factor (FGF), and granulocyte colony-stimulating factor (G-CSF) were measured by means of flow-based immunofluorescence multiplex detection (Fluorokine MAP Human Cytokine Panel; R&D Systems Inc., Minneapolis, Minn.) with the Luminex 100 IS platform (Luminex Corp., Austin, Tex.). […]

Setting [7] is: highest concentration of atorvastatin.

Experimental findings from patent US20080045582A1, “ENA-78 Gene Polymorphisms and Protein Concentrations as Diagnostic and Prognostic Tools” (priority 2006, published 2008) are described below.

Turning to farnesyl pyrophosphate [FPP], the “effect of co-treatment on the effect of AT on IL-1beta-stimulated ENA-78 production” value (shortened to “effect of co-treatment”) in assay [1] (FIG. 16) is reported as “partially reversed”.
interleukin-1beta [IL-1beta]: the “stimulation of ENA-78 production by IL-1beta, times that of basal production” value in assay [1] (4 hours) is given as 29 times; in assay [1] (12 hours), 282 times; in assay [1] (24 hours), 892 times; in assay [1] (48 hours) it was 1322 times. Further, the “IL-1beta stimulated ENA-78 production relative to constitutive concentrations” value in assay [1] (IL-1beta 2 ng/ml, FIG. 14) was about 60 fold. The “IL-1beta stimulated ENA-78 production” value in assay [1] (IL-1beta 2 ng/ml, no AT (constitutive 69±11 pg/mg), FIG. 14) came to 4075 ± 360 pg/mg. Moreover, the “IL-1beta-stimulated ENA-78 production” value in assay [1] (IL-1beta alone, mevalonate experiment, FIG. 16) was 3181 ± 590 pg/mg. Further, the “CXCL5 expression in HUVECs” value in assay [2] was “highly induced”.
As for mevalonate, the “effect of co-treatment” value in assay [1] (FIG. 16) was “partially reversed”. Further, in assay [3], the “effect of mevalonate cotreatment on atorvastatin effect on MCP-1” value is reported as “reversed”. For the same substance, the “effect of mevalonate cotreatment on atorvastatin effect on ENA-78 production” value in assay [4] (atorvastatin plus mevalonate 250 μM, 24 hours) is “reversed”. Also, the “reversal of atorvastatin effects on ENA-78 by mevalonate” value in assay [4] (setting [7]) is reported as “potentially incomplete reversal”. Besides, the “reversal of atorvastatin effects on IL-8 by mevalonate” value in assay [5] (setting [7]) is reported as “potentially incomplete reversal”. In assay [5] (mevalonate 250 μM, all atorvastatin groups), the “effect of addition of mevalonate on atorvastatin effect on IL-8” value is reported as “reversed”. In addition, the “effect of mevalonate on atorvastatin effect on IL-6” value in assay [6] is “eliminated”.
Consider geranylgeranyl pyrophosphate [GGPP], for which the “effect of co-treatment” value in assay [1] (FIG. 16) is given as “partially reversed”.
